Source: PMC3349777 (2012)

Experiments:
[1] = target: Trypanosoma cruzi squalene synthase (TcSQS) (Trypanosoma cruzi, UniProt Q4CWB4); assay: enzyme inhibition assay, recombinant SQS; assay type: biochemical
[2] = target: T1, human squalene synthase (HsSQS) (Homo sapiens, UniProt P37268); assay: enzyme inhibition assay, recombinant SQS; assay type: biochemical
T1 sequence (P37268 1-417): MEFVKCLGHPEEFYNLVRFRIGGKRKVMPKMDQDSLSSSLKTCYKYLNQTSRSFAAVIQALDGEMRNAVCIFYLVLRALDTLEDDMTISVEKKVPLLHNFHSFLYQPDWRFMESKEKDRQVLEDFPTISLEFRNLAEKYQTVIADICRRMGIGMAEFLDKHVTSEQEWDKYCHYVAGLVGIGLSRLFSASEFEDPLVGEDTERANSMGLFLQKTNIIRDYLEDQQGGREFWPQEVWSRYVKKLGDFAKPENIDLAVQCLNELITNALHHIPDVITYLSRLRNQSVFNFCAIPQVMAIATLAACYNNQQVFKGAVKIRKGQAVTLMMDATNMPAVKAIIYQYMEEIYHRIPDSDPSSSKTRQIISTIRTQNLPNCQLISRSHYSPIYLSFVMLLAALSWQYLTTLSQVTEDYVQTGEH

`CC(C)=CCC/C(C)=C\CNCCNC1C2CC3CC(C2)CC1C3` (centres unmarked) [compound 3, SQ-109] showed a Ki [1] of 1200 nM and a Ki [2] of 740 nM.
